{
  "source": "patent US8293211B2",
  "about": "“CB1 receptor antagonists and uses thereof” (MAKScientific, LLC, priority 2007, dated 2012)",
  "key": {"CB1 receptor": {"target": "CB1 receptor (Rattus norvegicus, UniProt P20272)", "sequence (P20272 whole entry)": "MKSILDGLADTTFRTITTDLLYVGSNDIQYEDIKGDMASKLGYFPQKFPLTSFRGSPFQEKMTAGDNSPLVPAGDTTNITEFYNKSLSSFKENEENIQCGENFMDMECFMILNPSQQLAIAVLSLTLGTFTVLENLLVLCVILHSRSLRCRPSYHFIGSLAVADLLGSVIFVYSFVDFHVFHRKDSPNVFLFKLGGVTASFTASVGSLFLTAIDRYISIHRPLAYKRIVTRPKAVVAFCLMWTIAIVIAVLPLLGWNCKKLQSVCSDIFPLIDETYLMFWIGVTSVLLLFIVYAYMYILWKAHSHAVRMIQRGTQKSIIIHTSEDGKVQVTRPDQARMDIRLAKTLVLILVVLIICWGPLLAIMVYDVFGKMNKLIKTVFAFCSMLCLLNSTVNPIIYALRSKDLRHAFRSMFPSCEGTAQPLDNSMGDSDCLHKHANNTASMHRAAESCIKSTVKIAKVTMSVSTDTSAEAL", "experiment": "[3H]CP55,940 competitive binding assay, CB1 (rat brain membranes)", "set-up": "membrane preparations from rat brain; from tissue; host or cells: rat brain membranes", "procedure": "Compounds were tested for their CB1 and CB2 receptor using membrane preparations from rat brain or HEK293 cells expressing hCB2 receptor, respectively, and [^3H]CP55,940 as previously described 1, 36-38. Stock solutions of the compounds (10 mM in DMSO) were diluted in TME buffer (50 mM Tris-HCL, 3 mM MgCl2, 100 mM NaCl, 0.2 mM EDTA, pH 7.4) with 0.1% BSA and transferred to 96 well plates containing [^3H]CP55,940 (specific activity 128 Ci/mmol; NIDA) at a final concentration of 0.76 nM. Non-specific binding was assessed in the presence of 100 nM CP55,940. The binding reaction was initiated with the addition of the respective membrane suspension (˜50 μg membrane protein) followed by incubation at 30° C. with gentle agitation in a shaking water bath for 60 minutes. […] The filter plates were washed with ice-cold wash buffer (50 mM Tris-base, 5 mM MgCl2 with 0.5% BSA) and bound radioactivity was determined using a Packard TopCount Scintillation Counter. The results were analyzed using nonlinear regression to determine the actual IC50 and the Ki values of the ligand (Prizm by GraphPad Software, Inc.). All data were in duplicate with IC50 and Ki values determined from at least two independent experiments.\nThe affinity of a compound for CB1 vs. CB2 is determined by the ratio of the inhibitory constants (Ki), as determined by the competitive binding assay."}, "adult male ferrets": {"system": "adult male ferrets", "experiment": "Emesis studies: vomiting induced by the emetic M6G", "type": "in vivo, ferret", "conditions": "for mean number of vomiting episodes±SEM: 60 min observation", "procedure": "Ferrets were lightly anaesthetized with halothane for each injection. Data were videotaped and analyzed by an observer blinded to the conditions of each treatment group. During 60 min of observation the number of vomiting (emetic) episodes were counted, and activity or sleeping time was noted. […] Each ferret acted as its own control, conditions were randomized via a counter balance design and separated by at least 14 days."}, "[1]": {"system": "Male Sprague-Dawley (SD) rats", "experiment": "Food intake studies (experiments A, B, C), food intake and body weight", "type": "in vivo, rat", "procedure": "All experimental protocols were approved by internal guidelines. Different concentrations of drugs were administered I.P. in a 1 ml kg-1 (milliliters per kilogram) volume, except M6G, which was given s.c. (subcutaneously) in a 0.1 ml kg-1 volume.\nFood and water were presented in inverted glass bottles that attached to the outside of the cage. Food was available for 18 h each day starting at 16:00 h (12 h light-dark cycle; lights off 16:00 h).\nIntake measurements were taken at 1.5 h, 3 h, 5 h, and 18 h after food became available.\nRats were habituated to testing and handling procedures as before. […] Food intake and body weight were monitored daily.\nOn the day of the experiment each rat received only a single injection, 30 min later food was made available as described in experiment 1. Food intake was measured 0.5, 1.5, 3, 5, and 18 h after administration. Food intake and body weight were monitored daily for five days after the experiment to assess the sustained effect of a single administration of each compound."}, "Rats": {"system": "Rats", "experiment": "Food intake studies using different diets", "type": "in vivo, rat", "conditions": "2.0, 4.0, 8.0 mg/kg IP 30 min prior; high-fat, high-carbohydrate, lab chow", "text": "Animals were assigned to three different diet conditions (n=10/group). One group was assigned to a high-fat diet (HF; Diet # D12451, Research Diets, New Brunswick, N.J., 20% protein, 45% fat, 35% carbohydrate). A second group was given a high-carbohydrate diet (HC; Diet # D12450B, Research Diets, New Brunswick, N.J., 20% protein, 10% fat, 70% carbohydrate). The remaining group was fed a standard chow diet (LC, 5P00 Prolab RMH 3000, PMI Nutrition International, St. Louis, Mo.; 26% protein, 14% fat, 60% carbohydrate). Food blocks from each type of diet were nutritionally complete and similar in appearance and weight. Rats were given free access to lab chow in their home cages until the beginning of a five day habituation period. On the first day of habituation, rats were assigned to their respective dietary groups and moved into suspended wire mesh test cages containing their assigned food type. After spending 30 min in the test cage, they were returned to their home cages. After this initial habituation period, rats were given free access to lab chow in their home cages every Thursday afternoon through Monday afternoon. Each Tuesday and Wednesday, rats spent 30 min in the test cages with their assigned diets. On Thursdays, the injected animals were placed in the test cages with a pre-weighed amount of assigned food. A piece of cardboard was placed underneath the chamber to catch spillage. […]"}, "[2]": {"conditions": "experiment B, 5 mg kg-1 daily, day 4"}, "[3]": {"conditions": "experiment B, 5 mg kg-1 daily, day 5"}},
  "data": [
    {"smiles": "Cc1c(C(=O)NN2CCCCC2)nn(-c2ccc(Cl)cc2Cl)c1-c1ccc(C#CCCC#N)cc1", "note": "[Compound 3]", "values": [
      {"measurement": "Ki", "setting": "CB1 receptor; against [3H]CP55,940, rat brain membranes", "value": "0.89 ± 0.44", "unit": "nM"},
      {"measurement": "selectivity for CB1 versus CB2 receptors", "setting": "CB1 receptor; ratio of Ki values", "value": "~100", "unit": "fold"},
      {"measurement": "mean number of vomiting episodes±SEM", "setting": "adult male ferrets; 5 mg kg-1 I.P. 15 min before M6G", "value": "2.0±0.6"},
      {"measurement": "mean number of vomiting episodes±SEM", "setting": "adult male ferrets; 10 mg kg-1 I.P. 15 min before M6G", "value": "2.0±0.4"},
      {"measurement": "mean number of vomiting episodes±SEM", "setting": "adult male ferrets; 20 mg kg-1 I.P. 15 min before M6G", "value": "2.7±0.6"},
      {"measurement": "effect on number of vomiting episodes induced by M6G compared with vehicle", "setting": "adult male ferrets; Compound 3 5, 10, 20 mg kg-1, Compound 1 5 mg kg-1", "value": "did not significantly increase"},
      {"measurement": "acute effect on food intake compared with vehicle", "setting": "[1]; experiment A, 5 mg kg-1 I.P. single dose", "value": "did not significantly reduced food intake"},
      {"measurement": "food intake and weight gain, differences to vehicle treated rats", "setting": "[1]; experiment B, 1 mg kg-1 daily", "value": "non significant"},
      {"measurement": "food intake, difference compared with vehicle treated rats", "setting": "[1]; experiment B, 5 mg kg-1 daily, day 3", "value": -23.2, "unit": "g"},
      {"measurement": "food intake, difference compared with vehicle treated rats", "setting": "[1]; [2]", "value": -20.4, "unit": "g"},
      {"measurement": "weight gain, difference to vehicle treated rats", "setting": "[1]; [2]", "value": -15.6, "unit": "g"},
      {"measurement": "food intake, difference compared with vehicle treated rats", "setting": "[1]; [3]", "value": -19.2, "unit": "g"},
      {"measurement": "weight gain, difference to vehicle treated rats", "setting": "[1]; [3]", "value": -21.8, "unit": "g"},
      {"measurement": "weight gain, difference to vehicle treated rats", "setting": "[1]; experiment B, 5 mg kg-1 daily, day 6", "value": -23.7, "unit": "g"},
      {"measurement": "food intake compared with vehicle", "setting": "[1]; experiment B, 1 and 5 mg kg-1 daily, first day of treatment", "value": "No significant reductions"},
      {"measurement": "differences in food intake", "setting": "[1]; experiment B, 1 and 5 mg kg-1 daily, second day of treatment", "value": "not statistically significant"},
      {"measurement": "food intake, difference between the 1 mg kg-1 and 5 mg kg-1 doses", "setting": "[1]; experiment B, daily treatment, day 3", "value": -17.6, "unit": "g"},
      {"measurement": "weight gain, difference 5 mg kg-1 versus 1 mg kg-1", "setting": "[1]; experiment B, daily treatment, day 4", "value": -12.0, "unit": "g"},
      {"measurement": "food intake, difference compared with vehicle treated rats", "setting": "[1]; experiment C, 10 mg kg-1 single dose, 3 h", "value": -20.0, "unit": "g"},
      {"measurement": "food intake, difference compared with vehicle treated rats", "setting": "[1]; experiment C, 10 mg kg-1 single dose, 5 h", "value": -22.8, "unit": "g"},
      {"measurement": "food intake, difference compared with vehicle treated rats", "setting": "[1]; experiment C, 10 mg kg-1 single dose, 18 h", "value": -42.0, "unit": "g"},
      {"measurement": "food intake, difference compared with vehicle treated rats", "setting": "[1]; experiment C, 10 mg kg-1 single dose, […]", "value": -14.3, "unit": "g"},
      {"measurement": "food intake, difference compared with vehicle treated rats", "setting": "[1]; experiment C, 20 mg kg-1 single dose, 3 h", "value": -21.3, "unit": "g"},
      {"measurement": "food intake, difference compared with vehicle treated rats", "setting": "[1]; experiment C, 20 mg kg-1 single dose, 5 h", "value": -30.1, "unit": "g"},
      {"measurement": "food intake, difference compared with vehicle treated rats", "setting": "[1]; experiment C, 20 mg kg-1 single dose, 18 h", "value": -60.6, "unit": "g"},
      {"measurement": "food intake, difference compared with vehicle treated rats", "setting": "[1]; experiment C, 20 mg kg-1 single dose, […]", "value": -15.0, "unit": "g"},
      {"measurement": "weight gain for several days after the experiment", "setting": "[1]; experiment C, single administration (Compound 1 5 mg kg-1; Compound 3 10, 20 mg kg-1)", "value": "significantly reduced"},
      {"measurement": "daily food intake after treatment relative to vehicle treated rats", "setting": "[1]; experiment C, single administration (Compound 1 5 mg kg-1; Compound 3 10, 20 mg kg-1), days after", "value": "reduced"},
      {"measurement": "weight gain, difference between 10 mg kg-1 and 20 mg kg-1 treatment groups", "setting": "[1]; experiment C, single dose, day 5", "value": -12.3, "unit": "g"},
      {"measurement": "food intake over vehicle across all diet groups", "setting": "Rats", "value": "significantly suppressed food intake"}
    ]}
  ]
}
